PubChem BioAssay AID2060509 (Molecular Pharmacology Branch, DTP, NCI, 2025)
pIC50: −log10 of the molar value.

System: 485176-168-R4-J1-PDC spheroids with HUVEC/MSC, viability
Assay: Anticancer human tumor 485176-168-R4-J1-PDC patient-derived pancreatic adenocarcinoma cell line growth inhibition [GQUAD]
Conditions: for pIC50: curve of first compound; for viability, T/C: stronger effect = lower value; active = viability on the fitted dose curve at most 10% of control; inactive = the rest
Method in brief: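 Tumor cells were grown as complex spheroids with HUVEC endothelial cells and mesenchymal stem cells as stroma. G-quadruplex stabilizers were combined with targeted agents over half-log dilutions from near the clinical Cmax, or from 10 microM.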

[1] = second compound 0.0316 µM, first compound 0.0316 µM
[2] = second compound 0.0316 µM, first compound 0.1 µM
[3] = second compound 0.0316 µM, first compound 0.316 µM
[4] = second compound 0.0316 µM, first compound 1 µM
[5] = second compound 0.0316 µM, first compound 3.16 µM
[6] = second compound 0.0316 µM, first compound 10 µM
[7] = second compound 0.1 µM, first compound 0.0316 µM
[8] = second compound 0.1 µM, first compound 0.1 µM
[9] = second compound 0.1 µM, first compound 0.316 µM
[10] = second compound 0.1 µM, first compound 1 µM
[11] = second compound 0.1 µM, first compound 3.16 µM
[12] = second compound 0.1 µM, first compound 10 µM
[13] = second compound 0.316 µM, first compound 0.0316 µM
[14] = second compound 0.316 µM, first compound 0.1 µM
[15] = second compound 0.316 µM, first compound 0.316 µM
[16] = second compound 0.316 µM, first compound 1 µM
[17] = second compound 0.316 µM, first compound 3.16 µM
[18] = second compound 0.316 µM, first compound 10 µM
[19] = second compound 1 µM, first compound 0.0316 µM
[20] = second compound 1 µM, first compound 0.1 µM
[21] = second compound 1 µM, first compound 0.316 µM
[22] = second compound 1 µM, first compound 1 µM
[23] = second compound 1 µM, first compound 3.16 µM
[24] = second compound 1 µM, first compound 10 µM
[25] = second compound 3.16 µM, first compound 0.0316 µM
[26] = second compound 3.16 µM, first compound 0.1 µM
[27] = second compound 3.16 µM, first compound 0.316 µM
[28] = second compound 3.16 µM, first compound 1 µM
[29] = second compound 3.16 µM, first compound 3.16 µM
[30] = second compound 3.16 µM, first compound 10 µM
[31] = second compound 10 µM, first compound 0.0316 µM
[32] = second compound 10 µM, first compound 0.1 µM
[33] = second compound 10 µM, first compound 0.316 µM
[34] = second compound 10 µM, first compound 1 µM
[35] = second compound 10 µM, first compound 3.16 µM
[36] = second compound 10 µM, first compound 10 µM
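Also: spheroids exposed to compounds for seven days before readout.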
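For viability, T/C in this document: percent viability relative to DMSO vehicle control wells as 100%.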

CC1COCCN1c1cc(C2(O)CC3CCC(C2)O3)c2cnn(-c3ccn[nH]3)c2n1 (stereo unspecified) + Cc1cnc(CNC(=O)c2c(=O)c3ccc(N4CCCN(C)CC4)nc3n3c2sc2ccccc23)cn1
inactive: viability, T/C [1] 48.9% | viability, T/C [2] 17.3% | viability, T/C [3] 11% | viability, T/C [7] 22.6% | viability, T/C [8] 14.5% | viability, T/C [9] 9.1% | viability, T/C [13] 15.5% | viability, T/C [14] 11.7% | viability, T/C [15] 10.3% | viability, T/C [16] 9.55% | viability, T/C [19] 13.8% | viability, T/C [20] 12.3% | viability, T/C [25] 17.7% | viability, T/C [26] 11.3% | viability, T/C [31] 13.8% | viability, T/C [32] 11.2% | viability, T/C [33] 10.2%
> 7.50: pIC50 (second compound 0.0316 µM) | pIC50 (second compound 0.1 µM) | pIC50 (second compound 0.316 µM) | pIC50 (second compound 1 µM) | pIC50 (second compound 3.16 µM) | pIC50 (second compound 10 µM)
active: viability, T/C [4] 8.41% | viability, T/C [5] 10.1% | viability, T/C [6] 8.06% | viability, T/C [10] 9.8% | viability, T/C [11] 11.5% | viability, T/C [12] 8.77% | viability, T/C [17] 10.9% | viability, T/C [18] 9.41% | viability, T/C [21] 9.3% | viability, T/C [22] 7.89% | viability, T/C [23] 9.58% | viability, T/C [24] 7.69% | viability, T/C [27] 10.5% | viability, T/C [28] 9.3% | viability, T/C [29] 8.86% | viability, T/C [30] 8.53% | viability, T/C [34] 9.98% | viability, T/C [35] 9.05% | viability, T/C [36] 7.21%

CC1COCCN1c1cc(C2(S(C)(=N)=O)CC2)nc(-c2ccnc3[nH]ccc23)n1 (stereo unspecified) + Cc1cnc(CNC(=O)c2c(=O)c3ccc(N4CCCN(C)CC4)nc3n3c2sc2ccccc23)cn1
5.64: pIC50 (second compound 0.0316 µM)
inactive: viability, T/C [1] 96.4% | viability, T/C [2] 82.9% | viability, T/C [3] 89.2% | viability, T/C [4] 44.8% | viability, T/C [5] 59% | viability, T/C [6] 15.1% | viability, T/C [7] 73.8% | viability, T/C [8] 82.6% | viability, T/C [9] 53.6% | viability, T/C [10] 39.7% | viability, T/C [11] 51% | viability, T/C [12] 12.1% | viability, T/C [13] 54% | viability, T/C [14] 62.7% | viability, T/C [15] 47.2% | viability, T/C [16] 28.2% | viability, T/C [17] 36.4% | viability, T/C [18] 11.9% | viability, T/C [19] 50.3% | viability, T/C [20] 51.5% | viability, T/C [21] 41.6% | viability, T/C [22] 28.9% | viability, T/C [23] 36.8% | viability, T/C [24] 11.9% | viability, T/C [25] 45.8% | viability, T/C [26] 41.6% | viability, T/C [27] 38.5% | viability, T/C [28] 23.9% | viability, T/C [29] 28.7% | viability, T/C [30] 11% | viability, T/C [31] 41.4% | viability, T/C [32] 36.7% | viability, T/C [33] 37.1% | viability, T/C [34] 27.5% | viability, T/C [35] 28.1% | viability, T/C [36] 12.8%
7.27: pIC50 (second compound 1 µM)
6.71: pIC50 (second compound 0.316 µM)
> 7.50: pIC50 (second compound 3.16 µM) | pIC50 (second compound 10 µM)
6.00: pIC50 (second compound 0.1 µM)

COc1ccc([C@@H](O)c2cc(-c3ncnc4cc(N5CCOCC5)ccc34)c(F)cc2Cl)nn1 + Cc1cnc(CNC(=O)c2c(=O)c3ccc(N4CCCN(C)CC4)nc3n3c2sc2ccccc23)cn1
5.96: pIC50 (second compound 0.0316 µM)
6.49: pIC50 (second compound 0.316 µM)
6.31: pIC50 (second compound 0.1 µM)
inactive: viability, T/C [1] 94.3% | viability, T/C [2] 91.4% | viability, T/C [3] 84.5% | viability, T/C [4] 48.5% | viability, T/C [5] 39.1% | viability, T/C [6] 24.4% | viability, T/C [7] 61.6% | viability, T/C [8] 67.9% | viability, T/C [9] 45.4% | viability, T/C [10] 47.9% | viability, T/C [11] 31.5% | viability, T/C [12] 18.7% | viability, T/C [13] 58.9% | viability, T/C [14] 64.7% | viability, T/C [15] 46.9% | viability, T/C [16] 36.9% | viability, T/C [17] 29.5% | viability, T/C [18] 16.1% | viability, T/C [19] 49.7% | viability, T/C [20] 54.6% | viability, T/C [21] 37.2% | viability, T/C [22] 45.5% | viability, T/C [23] 30.1% | viability, T/C [24] 14.2% | viability, T/C [25] 46% | viability, T/C [26] 43.7% | viability, T/C [27] 36.6% | viability, T/C [28] 36% | viability, T/C [29] 31.9% | viability, T/C [30] 14.2% | viability, T/C [31] 33.7% | viability, T/C [32] 39.7% | viability, T/C [33] 36.5% | viability, T/C [34] 29.1% | viability, T/C [35] 28.8% | viability, T/C [36] 14.9%
> 7.50: pIC50 (second compound 3.16 µM) | pIC50 (second compound 10 µM)
7.30: pIC50 (second compound 1 µM)
